Source: patent publication US20210380929A1, “METHODS, APPARATUS AND KITS FOR BACTERIAL CELL LYSIS” (TECHNISCHE UNIVERSITÄT WIEN, priority 2018, published 2021)

Tested on: Enterococcus faecalis type strain NCTC 775
Format: cell-based

Row | SMILES | 23S rRNA gene copies in 2.5 μl of the DNA extracts | cell lysis efficiency with varying IL concentration
1 | CC(=O)O.CCn1cc[n+](C)c1 [[C2mim]OAc, 1-Ethyl-3-methylimidazolium acetate] | ~6.48±0.02 | almost steadily decreased with its respective concentration
2 | CCCCCC(=O)[O-].C[N+](C)(C)CCO [[Cho]Hex, Choline hexanoate] | ~6.49±0.11 | slightly improved towards a concentration of 50% (w/v), only decreasing with lower concentrations of 30% (w/v) and 10% (w/v)
